From ChEMBL document CHEMBL4385632, “Synthesis of novel benzothiazole amides: Evaluation of PPAR activity and anti-proliferative effects in paraganglioma, pancreatic and colorectal cancer cell lines” (2019)
Calls of active or inactive are those of the source. The rule behind the calls is not given here.

Experiments:
[1] = molecular target: T1, Peroxisome proliferator-activated receptor alpha (Homo sapiens) (UniProt Q07869); assay: Antagonist activity at GAL4-tagged human PPARalpha LBD expressed in human HepG2 cells assessed as inhibition of Wy14,643-induced receptor transactivation at 25 uM incubated for 20 hrs by luciferase reporter gene assay relative to control; type: cell-based
T1 sequence (whole entry): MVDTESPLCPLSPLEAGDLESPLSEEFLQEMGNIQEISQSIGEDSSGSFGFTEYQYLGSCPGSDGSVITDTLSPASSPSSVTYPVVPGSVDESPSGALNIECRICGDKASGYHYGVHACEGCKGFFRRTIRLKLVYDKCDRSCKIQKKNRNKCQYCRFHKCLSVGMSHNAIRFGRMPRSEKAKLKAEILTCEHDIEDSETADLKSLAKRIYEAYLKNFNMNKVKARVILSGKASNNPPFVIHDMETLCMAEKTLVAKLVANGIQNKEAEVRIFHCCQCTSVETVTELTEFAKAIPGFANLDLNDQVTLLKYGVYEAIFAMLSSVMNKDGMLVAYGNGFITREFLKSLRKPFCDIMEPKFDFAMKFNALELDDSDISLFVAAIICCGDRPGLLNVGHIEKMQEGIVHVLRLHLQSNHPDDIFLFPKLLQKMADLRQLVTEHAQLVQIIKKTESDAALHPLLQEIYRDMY

[2] = molecular target: T2, Peroxisome proliferator-activated receptor gamma (Homo sapiens) (UniProt P37231); assay: Antagonist activity at GAL4-tagged human PPARgamma LBD expressed in human HepG2 cells assessed as inhibition of rosiglitazone-induced receptor transactivation at 25 uM incubated for 20 hrs by luciferase reporter gene assay relative to control; type: cell-based
T2 sequence (whole entry): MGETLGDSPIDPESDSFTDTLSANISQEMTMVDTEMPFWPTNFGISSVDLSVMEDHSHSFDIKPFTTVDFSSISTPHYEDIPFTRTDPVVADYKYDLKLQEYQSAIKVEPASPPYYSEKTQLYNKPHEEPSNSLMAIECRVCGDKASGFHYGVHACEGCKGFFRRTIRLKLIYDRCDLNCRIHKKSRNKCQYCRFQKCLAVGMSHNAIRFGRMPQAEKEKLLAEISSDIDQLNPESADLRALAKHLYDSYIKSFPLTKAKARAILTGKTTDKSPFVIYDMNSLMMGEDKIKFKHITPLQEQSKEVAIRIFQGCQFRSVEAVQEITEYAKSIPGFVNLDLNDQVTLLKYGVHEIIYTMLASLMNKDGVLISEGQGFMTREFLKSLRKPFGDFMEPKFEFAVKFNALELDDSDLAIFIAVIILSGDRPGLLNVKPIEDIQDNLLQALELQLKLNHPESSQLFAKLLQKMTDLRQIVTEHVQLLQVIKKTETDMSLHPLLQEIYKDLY

[3] = molecular target: T3, Peroxisome proliferator-activated receptor delta (Homo sapiens) (UniProt Q03181); assay: Antagonist activity at GAL4-tagged human PPARdelta LBD expressed in human HepG2 cells assessed as inhibition of L-165,041-induced receptor transactivation at 25 uM incubated for 20 hrs by luciferase reporter gene assay relative to control; type: cell-based
T3 sequence (whole entry): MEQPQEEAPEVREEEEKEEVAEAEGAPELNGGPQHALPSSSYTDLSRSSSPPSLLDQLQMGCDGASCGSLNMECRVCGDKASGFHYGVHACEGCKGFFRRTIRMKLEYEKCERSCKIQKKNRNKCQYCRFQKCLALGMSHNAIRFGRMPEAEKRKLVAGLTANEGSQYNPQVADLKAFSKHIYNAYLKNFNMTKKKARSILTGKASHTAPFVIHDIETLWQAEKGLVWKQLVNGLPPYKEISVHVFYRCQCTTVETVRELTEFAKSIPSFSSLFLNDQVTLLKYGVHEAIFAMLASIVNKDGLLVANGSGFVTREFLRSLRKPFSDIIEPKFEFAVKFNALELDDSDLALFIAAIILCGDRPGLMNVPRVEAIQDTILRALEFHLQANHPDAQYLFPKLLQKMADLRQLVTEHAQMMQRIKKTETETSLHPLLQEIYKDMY

ASPC1 = assay: Cytotoxicity against human AsPC1 cells assessed as reduction in cell viability at 75 uM incubated for 72 hrs by MTT assay; type: functional; settings: for inhibition at 75 µM: ASPC1, 72 h
Capan-2 = assay: Cytotoxicity against human Capan2 cells assessed as reduction in cell viability at 75 uM incubated for 72 hrs by MTT assay; type: functional; settings: for inhibition at 75 µM: Capan-2, 72 h
HT-29 = assay: Cytotoxicity against human HT-29 cells assessed as reduction in cell viability at 75 uM incubated for 72 hrs by MTT assay; type: functional; settings: for inhibition at 75 µM: HT-29, 72 h
SW480 = assay: Cytotoxicity against human SW480 cells assessed as reduction in cell viability at 75 uM incubated for 72 hrs by MTT assay; type: functional; settings: for inhibition at 75 µM: SW480, 72 h
[4] = (§1) Cytotoxicity against human PTJ64i cells assessed as reduction in cell viability at 75 uM incubated for 72 hrs by MTT assay; type: functional
[5] = (§2) Cytotoxicity against human PTJ86i cells assessed as reduction in cell viability at 75 uM incubated for 72 hrs by MTT assay; type: functional
Homo sapiens [6] = species on record: Homo sapiens; assay: as §1; type: functional
Homo sapiens [7] = species on record: Homo sapiens; assay: as §2; type: functional
Homo sapiens [8] = species on record: Homo sapiens; assay: Cytotoxicity against human PTJ64i cells assessed as reduction in cell viability incubated for 72 hrs by MTT assay; type: functional, cell-based
Homo sapiens [9] = species on record: Homo sapiens; assay: Cytotoxicity against human PTJ86i cells assessed as reduction in cell viability incubated for 72 hrs by MTT assay; type: functional, cell-based
[10] = Inhibition of colony formation in human PTJ64i cells assessed as plating efficiency at 24 uM incubated for 13 days by crystal violet staining based assay (Rvb=10.75%); type: functional; design: scale not given: the % may be the effect or the level left
[11] = Inhibition of colony formation in human PTJ64i cells assessed as surviving fraction at 24 uM incubated for 13 days by crystal violet staining based assay (Rvb=100%); type: functional; settings: 312 h, read-out: Survival
[12] = Inhibition of colony formation in human PTJ86i cells assessed as plating efficiency at 24 uM incubated for 13 days by crystal violet staining based assay (Rvb=30.25%); type: functional; design: scale not given: the % may be the effect or the level left
[13] = Inhibition of colony formation in human PTJ86i cells assessed as surviving fraction at 24 uM incubated for 13 days by crystal violet staining based assay (Rvb=100%); type: functional; settings: 312 h, read-out: Survival

In the case of `O=C(NCCc1ccccc1)C(Sc1nc2cc(Cl)ccc2s1)c1ccccc1` (stereo not given), the %max [1] was 57%, the %max [2] was under 2% and the %max [3] was under 2%. For the same compound, the inhibition at 75 µM (ASPC1) was at most 74%, the inhibition at 75 µM (Capan-2) was at most 74% and the inhibition at 75 µM (HT-29) was at most 50%. It also gave an inhibition at 75 µM (SW480) of at most 50%, an inhibition at 75 µM [4] of at least 50% and an inhibition at 75 µM [5] of at least 50%.
`CCCCNC(=O)C(Sc1nc2cc(Cl)ccc2s1)c1ccccc1` (stereo not given) gave a %max [1] of 31%, a %max [2] of under 2% and a %max [3] of under 2%. The inhibition at 75 µM (ASPC1) was at most 50%, the inhibition at 75 µM (Capan-2) was at most 50% and the inhibition at 75 µM (HT-29) was at most 50%. The inhibition at 75 µM (SW480) was at most 50%, the inhibition at 75 µM [4] was at least 50% and the inhibition at 75 µM [5] was at least 50%.
With `CC(NC(=O)C(Sc1nc2cc(Cl)ccc2s1)c1ccccc1)c1ccccc1` (stereo not given) the %max [1] was 45%, the %max [2] was under 2% and the %max [3] was under 2%. The inhibition at 75 µM (ASPC1) was at most 50%, the inhibition at 75 µM (Capan-2) was at most 50% and the inhibition at 75 µM (HT-29) was at most 50%. It also gave an inhibition at 75 µM (SW480) of 60%, an inhibition at 75 µM [4] of at least 50% and an inhibition at 75 µM [5] of at least 50%.
With `CCC(=O)NC[C@H](Cc1ccc(OCCc2nc(-c3ccccc3)oc2C)cc1)N/C(C)=C\C(=O)c1ccc(C(F)(F)F)cc1` the inhibition (ASPC1) was “Active”, the inhibition (Capan-2) was “Active” and the inhibition (HT-29) was “Active”. For the same compound, the inhibition (SW480) was “Active”, the inhibition (Homo sapiens [6]) was “Active” and the inhibition (Homo sapiens [7]) was “Active”.
For `O=C(NCCCc1ccccc1)C(Sc1nc2cc(Cl)ccc2s1)c1ccccc1` (stereo not given), the %max [1] was 46%, the %max [2] was under 2% and the %max [3] was under 2%. For the same compound, the inhibition at 75 µM (ASPC1) was at most 50%, the inhibition at 75 µM (Capan-2) was at most 50% and the inhibition at 75 µM (HT-29) was at most 63%. The inhibition at 75 µM (SW480) was at most 63%, the inhibition at 75 µM [4] was at least 50% and the inhibition at 75 µM [5] was at least 50%.
With `O=C(Nc1ccccc1)C(Sc1nc2cc(Cl)ccc2s1)c1ccccc1` (stereo not given) the %max [1] was 22%, the %max [2] was under 2% and the %max [3] was under 2%. The inhibition at 75 µM (ASPC1) was at most 75%, the inhibition at 75 µM (Capan-2) was at most 75% and the inhibition at 75 µM (HT-29) was at most 68%. The inhibition at 75 µM (SW480) was at most 68%, the inhibition at 75 µM [4] was over 90% and the inhibition at 75 µM [5] was over 90%. The inhibition (Homo sapiens [8]) was “Dose-dependent effect”, the inhibition (Homo sapiens [9]) was “Dose-dependent effect” and the Activity [10] was 2.5%. The viability at 24 µM [11] was 23.3%, the Activity [12] was 5.5% and the viability at 24 µM [13] was 18.2%.
`O=C(NCc1ccccc1)C(Sc1nc2cc(Cl)ccc2s1)c1ccccc1` (stereo not given) gave a %max [1] of 35%, a %max [2] of under 2% and a %max [3] of under 2%. It also gave an inhibition at 75 µM (ASPC1) of at most 50%, an inhibition at 75 µM (Capan-2) of at most 50% and an inhibition at 75 µM (HT-29) of at most 50%. The inhibition at 75 µM (SW480) was at most 50%, the inhibition at 75 µM [4] was at least 50% and the inhibition at 75 µM [5] was at least 50%.
With `CC(=O)Nc1ccc(NC(=O)C(Sc2nc3cc(Cl)ccc3s2)c2ccccc2)cc1` (stereo not given) the %max [1] was 22%, the %max [2] was under 2% and the %max [3] was under 2%. The inhibition at 75 µM (ASPC1) was at most 50%, the inhibition at 75 µM (Capan-2) was at most 50% and the inhibition at 75 µM (HT-29) was at most 50%. The inhibition at 75 µM (SW480) was at most 50%, the inhibition at 75 µM [4] was at least 50% and the inhibition at 75 µM [5] was at least 50%.
